Test results from patent publication US20240287048A1, “SUBSTITUTED ACYL SULFONAMIDES FOR TREATING CANCER” (The Broad Institute, Inc., priority 2020, published 2024).

Assays:
KAT6A = target: T1, KAT6A (Homo sapiens, UniProt Q92794); assay: Kat6a activity assay (TR-FRET, acetylation of biotinylated histone H4 peptide); type: biochemical; details: recombinant human His-tagged Kat6a (amino acids 194-810), 60 mins at 22° C., read-out: KAT6A-DPF/HAT domain IC50 [mol/l] (arithmetic mean)
T1 construct: Recombinant human His-tagged Kat6a protein (amino acids 194-810); His; made in house; host or cells: Baculovirus-infected Sf9 insect cells
Outline: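 His-tagged human Kat6a (aa 194-810, Sf9-expressed) with compound (0.01-20 μM) for 60 min at 22° C., pH 8 Tris buffer, 220 nM biotinylated H4 peptide (aa 1-24) and 600 nM acetyl-CoA. Acetyl-K8 detected by Eu-antibody/SA-XL665 TR-FRET (665/620 nm ratio); IC50 from 4-parameter fit.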

[1] = tested on: Salmonella tester strain TA100; assay: Bacterial reverse gene mutation test Ames MPF Penta I, TA100; type: cell-based
Text: (§1) The employed commercial assay Ames MPF Penta I comprises the histidine auxotrophic Salmonella tester strains TA98, TA100, TA1535, TA1537 and two tryptophan auxotrophic tester strains E. coli wp2 (E. coli wp2 [pKM101] and E. coli wp2 uvrA, combined exposure). These strains meet the requirements of the OECD guideline 471 for testing chemicals.
(§2) Bacterial strains were exposed to various concentrations of the test compounds in a histidine (His) or tryptophane (Trp) deficient medium. As recommended by ICH S2(R1) guideline, the test was conducted in two assay conditions, with and without addition of microsomal enzymes (S9 mix), taking the potential formation of DNA reactive metabolites via xenobiotic biotransformation into account.
(§3) The potential of the test compound to induce gene mutations is assessed by comparing the control with the test compounds treated bacterial cultures.

[2] = tested on: Salmonella tester strain TA98; assay: Bacterial reverse gene mutation test Ames MPF Penta I, TA98; type: cell-based
Text: as §1, §2, §3

LCLC-97TM1 cells = assay: Proliferation assay in LCLC-97TM1 cells; type: cell-based; details: Homo sapiens, 144 h, Alamar Blue, read-out: LCLC97TM1 proliferation assay, EC50[M] (arithmetic mean)
Outline: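 LCLC-97TM1 large-cell lung carcinoma cells were seeded at 6000 per well in RPMI 1640 with 2.5% FBS and exposed to compound for 144 h at 37 °C, 5% CO2, in triplicate. Viability was read by Alamar Blue fluorescence at 590 nm after 2 h.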

[3] = tested on: Salmonella tester strain TA1535; assay: Bacterial reverse gene mutation test Ames MPF Penta I, TA1535; type: cell-based
Text: as §1, §2, §3

[4] = tested on: Salmonella tester strain TA1537; assay: Bacterial reverse gene mutation test Ames MPF Penta I, TA1537; type: cell-based
Text: as §1, §2, §3

ZR-75-1 cells = assay: Proliferation assay in ZR-75-1 cells; type: cell-based; details: Homo sapiens, 144 h, Alamar Blue, read-out: ZR75-1 proliferation assay, EC50[M] (arithmetic mean)
Outline: (§4)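 KAT6A-amplified ZR-75-1 cells (RPMI 1640, 2.5% FBS) and KAT6A-low MDA-MB-436 cells (DMEM/Ham's F12, 2.5% FBS) were seeded at 3000 cells/well. Treatment lasted 144 h at 37 °C, 5% CO2, in triplicate. Viability was read by Alamar Blue (2 h) fluorescence at […].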

MDA-MB-436 cells = assay: Proliferation assay in MDA-MB-436 cells (negative control cell line); type: cell-based; details: Homo sapiens, 144 h, Alamar Blue, read-out: MDA-MB-436 proliferation assay, EC50[M] (arithmetic mean)
Outline: as §4

T1 sequence (Q92794 194-810): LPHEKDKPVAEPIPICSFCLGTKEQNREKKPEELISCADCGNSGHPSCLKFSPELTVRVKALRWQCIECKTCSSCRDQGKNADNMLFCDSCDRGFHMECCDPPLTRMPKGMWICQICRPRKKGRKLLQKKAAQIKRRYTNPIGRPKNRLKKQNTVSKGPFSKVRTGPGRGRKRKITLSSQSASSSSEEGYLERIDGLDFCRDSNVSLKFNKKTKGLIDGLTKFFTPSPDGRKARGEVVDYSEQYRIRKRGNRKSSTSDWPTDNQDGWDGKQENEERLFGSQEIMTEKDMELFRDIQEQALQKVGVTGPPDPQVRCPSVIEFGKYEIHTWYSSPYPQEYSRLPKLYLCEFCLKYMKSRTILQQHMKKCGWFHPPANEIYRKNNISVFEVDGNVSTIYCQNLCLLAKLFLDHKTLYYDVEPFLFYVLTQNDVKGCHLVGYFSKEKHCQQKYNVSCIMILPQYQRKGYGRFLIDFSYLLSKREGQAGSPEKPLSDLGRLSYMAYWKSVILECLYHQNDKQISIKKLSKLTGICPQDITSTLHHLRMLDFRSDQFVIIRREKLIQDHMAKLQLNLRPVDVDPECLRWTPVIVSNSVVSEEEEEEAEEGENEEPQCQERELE

O=C(NS(=O)(=O)c1ccccc1-c1ccccc1)c1cc2ccc(C3CC3)cc2o1 [Example 16, N-([1,1′-biphenyl]-2-sulfonyl)-6-cyclopropyl-1-benzofuran-2-carboxamide]
IC50 (KAT6A): 62.4 nM | Result of the bacterial reverse gene mutation test Ames MPF Penta I, TA100 ([1]; with addition of S9 mix): negative | Result of the bacterial reverse gene mutation test Ames MPF Penta I, TA100 ([1]; without addition of S9 mix): negative | Result of the bacterial reverse gene mutation test Ames MPF Penta I, TA98 ([2]; with addition of S9 mix): negative | Result of the bacterial reverse gene mutation test Ames MPF Penta I, TA98 ([2]; without addition of S9 mix): negative | EC50 (LCLC-97TM1 cells): 1.14e-05 M | Result of the bacterial reverse gene mutation test Ames MPF Penta I, TA1535 ([3]; with addition of S9 mix): negative | Result of the bacterial reverse gene mutation test Ames MPF Penta I, TA1535 ([3]; without addition of S9 mix): negative | Result of the bacterial reverse gene mutation test Ames MPF Penta I, TA1537 ([4]; with addition of S9 mix): negative | Result of the bacterial reverse gene mutation test Ames MPF Penta I, TA1537 ([4]; without addition of S9 mix): negative | EC50 (ZR-75-1 cells): 5.93e-06 M | EC50 (MDA-MB-436 cells): > 2e-05 M

CCOc1ccccc1S(=O)(=O)NC(=O)c1cc2ccc(C(C)C)cc2o1 [Example 55, N-(2-Ethoxybenzenesulfonyl)-6-(propan-2-yl)-1-benzofuran-2-carboxamide]
IC50 (KAT6A): 596 nM | Result of the bacterial reverse gene mutation test Ames MPF Penta I, TA100 ([1]; with addition of S9 mix): negative | Result of the bacterial reverse gene mutation test Ames MPF Penta I, TA100 ([1]; without addition of S9 mix): negative | Result of the bacterial reverse gene mutation test Ames MPF Penta I, TA98 ([2]; with addition of S9 mix): negative | Result of the bacterial reverse gene mutation test Ames MPF Penta I, TA98 ([2]; without addition of S9 mix): negative | EC50 (LCLC-97TM1 cells): > 2e-05 M | Result of the bacterial reverse gene mutation test Ames MPF Penta I, TA1535 ([3]; with addition of S9 mix): negative | Result of the bacterial reverse gene mutation test Ames MPF Penta I, TA1535 ([3]; without addition of S9 mix): negative | Result of the bacterial reverse gene mutation test Ames MPF Penta I, TA1537 ([4]; with addition of S9 mix): negative | Result of the bacterial reverse gene mutation test Ames MPF Penta I, TA1537 ([4]; without addition of S9 mix): negative | EC50 (ZR-75-1 cells): 1.27e-05 M | EC50 (MDA-MB-436 cells): > 2e-05 M
